From US20050137807A1, “Method of visualization of the ADME properties of chemical substances” (priority 2003, published 2005)
Values after ≈ are worked out from the molar mass of the structure shown. Like-named read-outs stand apart in the source and are kept apart here.

Experiments:
[1] = water solubility, from the literature; cited from earlier work
[2] = membrane affinity as a measure of the lipophilicity (TRANSIL technology); format: physicochemical
[3] = molecular target: human serum albumin (Homo sapiens, UniProt P02768); test: binding constant to human serum albumin (TRANSIL technology)
Description: The effective molecular weight (MW) is obtained simply from the respective empirical formula of the substance. The waters solubilities and the typical administered dosages of these commercially available products are furthermore known from the literature.
The ADME maps in FIGS. 5 to 10 show by way of example a selection of commercially available pharmaceutical substances. The substance names and the associated experimental measurement values for their physicochemical properties are summarised in Table 1.

[4] = log binding constant to human serum albumin, TRANSIL

Sequence of human serum albumin (P02768 25-609): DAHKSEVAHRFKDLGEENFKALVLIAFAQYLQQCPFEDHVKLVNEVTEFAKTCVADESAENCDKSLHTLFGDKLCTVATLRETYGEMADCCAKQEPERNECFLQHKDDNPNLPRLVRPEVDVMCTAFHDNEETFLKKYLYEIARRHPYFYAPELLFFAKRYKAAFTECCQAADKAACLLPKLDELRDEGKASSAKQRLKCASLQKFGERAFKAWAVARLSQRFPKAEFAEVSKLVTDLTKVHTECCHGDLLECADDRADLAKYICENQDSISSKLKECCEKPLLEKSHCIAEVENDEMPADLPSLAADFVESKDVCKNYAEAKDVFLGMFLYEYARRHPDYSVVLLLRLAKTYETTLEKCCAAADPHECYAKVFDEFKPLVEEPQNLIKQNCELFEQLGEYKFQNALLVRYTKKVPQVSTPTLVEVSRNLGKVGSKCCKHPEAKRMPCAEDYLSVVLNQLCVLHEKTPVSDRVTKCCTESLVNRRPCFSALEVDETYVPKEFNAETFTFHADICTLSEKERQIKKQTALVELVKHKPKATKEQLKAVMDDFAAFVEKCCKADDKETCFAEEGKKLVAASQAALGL

Row | Compound | Solubility [1] [µg/mL] | LogMA [2] | LogHSA ([3]; human) | LogHSA [3, 4] | LogHSA [3]
1 | C=CCc1ccccc1OCC(O)CNC(C)C (centres unmarked) [Alprenolol] | 547 (≈ 2190 µM) | 2.699 |  |  | 
2 | CC(C)(O/N=C(\C(=O)N[C@@H]1C(=O)N2C(C(=O)[O-])=C(C[n+]3ccccc3)CS[C@H]12)c1csc(N)n1)C(=O)O [Ceftazidime] | >500 | 1.000 | −2.495 |  | 
3 | CO/N=C(\C(=O)N[C@@H]1C(=O)N2C(C(=O)O)=C(CSc3nc(=O)c(=O)[nH]n3C)CS[C@H]12)c1csc(N)n1 [Ceftriaxone] | 958 (≈ 1730 µM) | 0.903 | −3.585 |  | 
4 | CO/N=C(\C(=O)N[C@@H]1C(=O)N2C(C(=O)O)=C(COC(N)=O)CS[C@H]12)c1ccco1 [Cefuroxime] | 145 (≈ 342 µM) | 0.477 | −2.553 |  | 
5 | C[C@]12C[C@H](O)[C@H]3[C@@H](CCC4=CC(=O)CC[C@@]43C)[C@@H]1CC[C@@H]2C(=O)CO [Corticosterone] | 143 (≈ 413 µM) | 2.531 |  |  | 
6 | CNCCCN1c2ccccc2CCc2ccccc21 [Despiramine] | 0.99 (≈ 3.72 µM) |  |  | −3.398 | 
7 | C[C@@H]1C[C@H]2[C@@H]3CCC4=CC(=O)C=C[C@]4(C)[C@@]3(F)[C@@H](O)C[C@]2(C)[C@@]1(O)C(=O)CO [Dexamethasone] | 93 (≈ 237 µM) |  |  |  | 
8 | COc1cccc2c1C(=O)c1c(O)c3c(c(O)c1C2=O)C[C@@](O)(C(=O)CO)C[C@@H]3O[C@H]1C[C@H](N)[C@H](O)[C@H](C)O1 [Doxorubicin] | 93 (≈ 171 µM) | 2.322 |  | −1.886 | 
9 | CCn1cc(C(=O)O)c(=O)c2cc(F)c(N3CCNCC3)nc21 [Enoxacin] | 34300 (≈ 107000 µM) | 0.954 | −2.278 |  | 
10 | CN1CCN(c2c(F)cc3c(=O)c(C(=O)O)cn(CCF)c3c2F)CC1 [Fleroxacin] |  | 1.301 | −2.523 |  | 
11 | OC(Cn1cncn1)(Cn1cncn1)c1ccc(F)cc1F [Fluconazole] | 1086 (≈ 3550 µM) |  |  |  | 
12 | CN1C(=O)CN=C(c2ccccc2F)c2cc([N+](=O)[O-])ccc21 [Flunitrazepam] | 72.8 (≈ 232 µM) | 2.477 |  |  | 
13 | COc1ccc(Cl)cc1C(=O)NCCc1ccc(S(=O)(=O)NC(=O)NC2CCCCC2)cc1 [Glibenclamid] |  | 2.301 |  |  | −6.221
14 | N=C(N)N/N=C/c1c(Cl)cccc1Cl [Guanabenz] | 1055 (≈ 4570 µM) | 0.602 | −3.745 |  | 
15 | O=C(CCCN1CCC(O)(c2ccc(Cl)cc2)CC1)c1ccc(F)cc1 [Haloperidol] |  | 3.723 | −2.745 |  | 
16 | CN(C)CCCN1c2ccccc2CCc2ccccc21 [Imipramine] | 1 (≈ 3.57 µM) | 3.190 | −3.301 |  | 
17 | COC(=O)C1=C(C)NC(C)=C(C(=O)OC(C)C)C1c1cccc2nonc12 (centres unmarked) [Isradipin] | 49 (≈ 132 µM) | 3.699 |  | −4.301 | 
18 | CC(CCc1ccccc1)NCC(O)c1ccc(O)c(C(N)=O)c1 (centres unmarked) [Labetalol] | 73 (≈ 222 µM) | 3.620 |  |  | 
19 | Cc1ccccc1N1C(=O)c2cc(S(N)(=O)=O)c(Cl)cc2NC1C (centres unmarked) [Metolazone] |  | 1.531 | −4.201 |  | 
20 | COCCc1ccc(OCC(O)CNC(C)C)cc1 (centres unmarked) [Metoprolol] |  | 1.591 | −2.000 |  | 
21 | CN(Cc1cnc2nc(N)nc(N)c2n1)c1ccc(C(=O)N[C@@H](CCC(=O)O)C(=O)O)cc1 [Metotrexate] | 26000 (≈ 57200 µM) | 1.176 |  | −3.796 | 
22 | CCN(CC)CCNC(=O)c1ccc(NC(C)=O)cc1 [N-Acetylprocainamide] | >1000 | 1.176 |  | −2.268 | 
23 | CC(C)(C)NCC(O)COc1cccc2c1CC(O)C(O)C2 (centres unmarked) [Nadolol] | 22400 (≈ 72400 µM) | 0.602 |  |  | 
24 | COC(=O)C1=C(C)NC(C)=C(C(=O)OCC(C)C)C1c1ccccc1[N+](=O)[O-] (centres unmarked) [Nisoldipine] | 25 (≈ 64.4 µM) |  | −5.319 |  | 

Row | Compound | Solubility [1] [µg/mL] | LogMA [2] | LogHSA ([3]; human) | LogHSA [3, 4] | LogHSA [3]
25 | CCOC(=O)C1=C(C)NC(C)=C(C(=O)OC)C1c1cccc([N+](=O)[O-])c1 (centres unmarked) [Nitrendipine] | 77 (≈ 214 µM) |  | −4.824 |  | 
26 | CCn1cc(C(=O)O)c(=O)c2cc(F)c(N3CCNCC3)cc21 [Norfloxacin] |  | 0.602 | −3.000 |  | 
27 | Cc1nccn1CC1CCc2c(c3ccccc3n2C)C1=O (centres unmarked) [Ondansetron] | 5.7 (≈ 19.4 µM) | 2.672 | −3.237 |  | 
28 | C=CCOc1ccccc1OCC(O)CNC(C)C (centres unmarked) [Oxprenolol] |  | 2.301 | −3.301 |  | 
29 | CC(=O)Nc1ccc(O)cc1 [Paracetamol] |  | 0.778 | −2.000 |  | 
30 | CC1(C)S[C@@H]2[C@H](NC(=O)Cc3ccccc3)C(=O)N2[C@H]1C(=O)O [Penicilin G] | 50 (≈ 150 µM) | 1.041 |  | −4.301 | 
31 | CC(C)=CCN1CCC2(C)c3cc(O)ccc3CC1C2C (centres unmarked) [Pentazocin] |  | 2.633 |  | −2.510 | 
32 | CCCC(C)C1(CC)C(=O)NC(=O)NC1=O (centres unmarked) [Pentobarbital] |  | 2.176 |  | −2.523 | 
33 | CC1(C)S[C@@H]2[C@H](NC(=O)COc3ccccc3)C(=O)N2[C@H]1C(=O)O [Phenoxymethyl penicillinic acid] |  | 1.146 |  |  | −3.102
34 | O=C1NC(=O)C(c2ccccc2)(c2ccccc2)N1 [Phenytoin] | 1267 (≈ 5020 µM) | 2.778 | −3.639 |  | 
35 | CC(C)NCC(O)COc1cccc2[nH]ccc12 (centres unmarked) [Pindolol] |  | 2.398 | −2.699 |  | 
36 | CN1C(C(=O)Nc2ccccn2)=C(O)c2ccccc2S1(=O)=O [Piroxicam] | 521 (≈ 1570 µM) | 2.079 | −5.301 |  | 
37 | CC(=O)[C@H]1CC[C@H]2[C@@H]3CCC4=CC(=O)CC[C@]4(C)[C@H]3CC[C@]12C [Progesteron] |  | 3.843 |  | −6.189 | 
38 | CN(C)CCCN1c2ccccc2Sc2ccccc21 [Promazine] |  | 3.823 |  | −3.301 | 
39 | CC(CN1c2ccccc2Sc2ccccc21)N(C)C (centres unmarked) [Promethazine] |  | 3.992 | −3.028 |  | 
40 | CC(C)NCC(O)c1ccc(NS(C)(=O)=O)cc1 (centres unmarked) [Sotalol] |  | 1.301 | −1.678 |  | 
41 | Cc1nnc(NS(=O)(=O)c2ccc(N)cc2)s1 [Sulfamethizole] |  | 1.000 | −4.000 |  | 
42 | NC(=O)N1C(=O)/C(=C(\O)c2cccs2)c2cc(Cl)ccc21 [Tenidap] | 2676 (≈ 8340 µM) |  |  |  | 
43 | COc1cc2nc(N3CCN(C(=O)C4CCCO4)CC3)nc(N)c2cc1OC (centres unmarked) [Terazosin] | 205 (≈ 529 µM) | 1.785 |  |  | 
44 | Cn1c(=O)c2[nH]cnc2n(C)c1=O [Theophiline] | 2800 (≈ 15500 µM) | 0.886 |  |  | 
45 | CCCCNC(=O)NS(=O)(=O)c1ccc(C)cc1 [Tolbutamid] | 109 (≈ 403 µM) |  |  |  | 
46 | NC[C@H]1CC[C@H](C(=O)O)CC1 [Tranexamic acid] |  | −0.301 | −4.000 |  | 
47 | OC(CCN1CCCCC1)(c1ccccc1)C1CCCCC1 (centres unmarked) [Trihexylphenidyl] |  | 2.415 |  | −3.006 | 
